# Source: US7947284B2, “Purified component of blue-green algae and method of use” (Desert Lake Technologies, priority 2005, dated 2011)
# Test system: CXCR4 expression on the human CD34+ cell line KG-1a
# Assay: Fucoidan-induced CXCR4 expression on KG-1a cells (flow cytometry)
# Assay type: cell-based
# Conditions: KG-1a incubated with the agonist alone
# Excerpt: Immunostaining for CXCR4 expression induced by L-selectin ligands: The binding of Fucoidan to L-selectin results in externalization of pre-made CXCR4 onto the cell surface, followed by internalization, creating a window in time for responsiveness to chemotactic factors. This system was used to examine whether AFA-W would compete with Fucoidan for binding to L-selectin on the leukocyte cell surface, and to assess whether it would block this functional effect from another L-selectin ligand. To do so, freshly purified human PBMC were resuspended in RPMI, and distributed in a series of round-bottom microwells. Fucoidan was added to one series of wells, AFA-W to another series, and a mixture of Fucoidan and AFA-W was added to the third series of wells. […] Cells were washed in phosphate-buffered saline containing azide, stained with CXCR4-PE using the staining protocol described above, fixed in formalin, and analyzed by flow cytometry.
# The primitive cell line KG-1a is brightly positive for CD34 and for L-selectin, as evaluated by staining with the TQ1 monoclonal antibody. […]
# The expression of CXCR4 receptors following exposure to fucoidan was evaluated on lymphocytes using flow cytometry.
substance,measurement,value
Fucoidan,effect on expression of the chemokine receptor CXCR4,triggers the expression
